Assay results: PubChem BioAssay (NCI)
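Dose response: 5 concentrations. Exposure: 48 h. Format: 96-well plates. Endpoint: linear interpolation; highest concentration if not reached. Here, GI50 denotes the concentration required for 50% inhibition of growth. Definition used: TGI = concentration required for complete inhibition of growth.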

Key:
Assay in all cases: inhibition of tumour cell growth, NCI panel, 48 h
KM20L2 colon = system: KM20L2 colon
NCI-H522 lung = system: NCI-H522 lung
OVCAR-3 ovarian = system: OVCAR-3 ovarian
HCC-2998 colon = system: HCC-2998 colon
HCT-116 colon = system: HCT-116 colon
M14 melanoma = system: M14 melanoma
DMS 273 small cell lung = system: DMS 273 small cell lung
NCI-H23 lung = system: NCI-H23 lung
EKVX NSCLC = system: EKVX NSCLC
SK-MEL-28 melanoma = system: SK-MEL-28 melanoma
OVCAR-5 ovarian = system: OVCAR-5 ovarian
IGROV1 ovarian = system: IGROV1 ovarian
SNB-19 CNS = system: SNB-19 CNS
CAKI-1 renal = system: CAKI-1 renal
SW-620 colon = system: SW-620 colon
M19-MEL melanoma = system: M19-MEL melanoma
SF-268 CNS = system: SF-268 CNS
SK-OV-3 ovarian = system: SK-OV-3 ovarian
HOP-92 NSCLC = system: HOP-92 NSCLC

SMILES: C[CH2][Sn]([CH2]C)([O]C(=O)c1cccc(OC)c1)[O][Sn]([CH2]C)([CH2]C)[O]C(=O)c1cccc(OC)c1
- GI50 (KM20L2 colon): 43.6 µM
- TGI (KM20L2 colon): > 100 µM
- GI50 (NCI-H522 lung): 0.879 µM
- TGI (NCI-H522 lung): 2.4 µM
- GI50 (OVCAR-3 ovarian): 58 µM
- TGI (OVCAR-3 ovarian): > 100 µM
- GI50 (HCC-2998 colon): > 76 µM
- TGI (HCC-2998 colon): > 100 µM
- GI50 (HCT-116 colon): > 43.2 µM
- TGI (HCT-116 colon): > 58.8 µM
- GI50 (M14 melanoma): 30.9 µM
- TGI (M14 melanoma): > 59.4 µM
- GI50 (DMS 273 small cell lung): 22.7 µM
- TGI (DMS 273 small cell lung): 58.5 µM
- GI50 (NCI-H23 lung): 17.6 µM
- TGI (NCI-H23 lung): 36.2 µM
- GI50 (EKVX NSCLC): > 40.8 µM
- TGI (EKVX NSCLC): > 55.6 µM
- GI50 (SK-MEL-28 melanoma): 16.3 µM
- TGI (SK-MEL-28 melanoma): 35.9 µM
- GI50 (OVCAR-5 ovarian): 27 µM
- TGI (OVCAR-5 ovarian): > 61.6 µM
- GI50 (IGROV1 ovarian): > 100 µM
- TGI (IGROV1 ovarian): > 100 µM
- GI50 (SNB-19 CNS): 23.1 µM
- TGI (SNB-19 CNS): 57.1 µM
- GI50 (CAKI-1 renal): 11.8 µM
- TGI (CAKI-1 renal): 24.3 µM
- GI50 (SW-620 colon): 16.7 µM
- TGI (SW-620 colon): 33.1 µM
- GI50 (M19-MEL melanoma): 17.1 µM
- TGI (M19-MEL melanoma): 31.7 µM
- GI50 (SF-268 CNS): 23.2 µM
- TGI (SF-268 CNS): > 56.6 µM
- GI50 (SK-OV-3 ovarian): > 100 µM
- TGI (SK-OV-3 ovarian): > 100 µM
- GI50 (HOP-92 NSCLC): 15 µM
- TGI (HOP-92 NSCLC): 29.8 µM
